Patent US20090253796A1, “METHOD FOR TREATING VASCULAR DISEASE” (Research Foundation Itsuu Laboratory, priority 2002, published 2009)

Assays:
[1] = test system: human umbilical artery endothelial cells; assay: BrdU uptake (proliferation) of endothelial cells; assay type: cell-based; conditions: for ratio of uptake of BrdU relative to the uptake without Am80: Endothelial cell, 10% fetal bovine serum, BrdU added after 24 hours, measured for 4 hours
Protocol: (§1) Rat aorta smooth muscle cells and human umbilical artery endothelial cells were cultured in the presence of 10% fetal bovine serum, and added with Am80 at various concentrations. After 24 hours, BrdU was added to the culture medium, and BrdU uptake ability was measured for 4 hours. The ratios of uptake of BrdU at the various concentrations relative to the uptake obtained without addition of Am80 are summarized in the table. The BrdU uptake ability represents DNA synthesis ability in proportion to the proliferation.

[2] = test system: Rat aorta smooth muscle cells; assay: BrdU uptake (proliferation) of smooth muscle cells; assay type: cell-based; conditions: for ratio of uptake of BrdU relative to the uptake without Am80: Smooth muscle cell, 10% fetal bovine serum, BrdU added after 24 hours, measured for 4 hours
Protocol: as §1

[3] = test system: cuff-injured femoral arteries of wild-type mice (129SVxC57BL6); assay: Cuff-injured femoral artery model; assay type: in vivo; conditions: for neointima of injured blood vessel (in words) / granulation around the cuff (in words): 5 mg/kg/day
Protocol: Polyethylene tube cuffs were indwelled in femoral arteries of wild-type mice (129SVxC57BL6) to injure the arteries. Am80 was orally administered at a dose of 5 mg/kg/day, and after 5 weeks, appearance and cross sections of the injured sites were evaluated. Areas of neointima of the femoral artery covered with the tube cuff and granulation tissue around the cuff were measured.

[4] = test system: rabbit common iliac artery; assay: Restenosis after indwelling of stent in common iliac artery; assay type: in vivo; conditions: rabbits, oral 1 mg/kg every day, 4 weeks after indwelling of the stent, p<0.05 vs control group
Protocol: Internal diameter of a rabbit common iliac artery was measured by intravascular ultrasound imaging (IVUS), and then a balloon was expanded to a size of 1 to 1.1 times of the internal diameter and a stent was indwelled. After the indwelling, the internal diameter was measured again by IVUS to confirm that the internal diameter changed 1 to 1.1 times and the stent was precisely indwelled. For each of the control group and Am80-administrated group, 6 rabbits were used. The rabbits were orally administered with Am80 at a dose of 1 mg/kg every day, and 4 weeks after the indwelling of the stent, the arteries at the stent-indwelled sites were collected and fixed to examine tissue images. Serial sections were prepared for the proximal, intermediary, and distal positions within the stent, and areas of tunica media and intima were measured.

[5] = test system: angiotensin II hypercardia model mice; assay: Angiotensin II hypercardia model; assay type: in vivo
Protocol: Mice were administered with angiotensin II at a dose of 3.2 mg/kg/day for two weeks by using an osmotic pressure pump to prepare hypercardia models. After 2 weeks, hypercardia, stromal fibrosing, and fibrosing around coronary artery were observed.

KLF5/BTEB2+/- mice = assay: Cuff injury in KLF5/BTEB2+/- knockout mice; assay type: in vivo; conditions: in which granulation was otherwise suppressed
Source text: It is known that various kinds of growth factors are induced in blood vessel walls against affections in the cardiovascular system remodeling. By using mice (KLF5/BTEB2+/−mice) with hetero-knockout of Zn finger type transcription factor KLF5/BTEB2, which is strongly expressed in neointima of injured blood vessels among such growth factors, studies were made to know whether or not the effect of proliferation of neointima was induced by the retinoid action.

| SMILES | ratio of uptake of BrdU relative to the uptake without Am80 ([1]; 0.3 μM) | ratio of uptake of BrdU relative to the uptake without Am80 ([1]; 1 μM) | ratio of uptake of BrdU relative to the uptake without Am80 ([1]; 3 μM) | ratio of uptake of BrdU relative to the uptake without Am80 ([1]; 10 μM) | antiproliferative action on vascular endothelial cells (in words) ([1]; summary statement) | ratio of uptake of BrdU relative to the uptake without Am80 ([2]; 0.3 μM) | ratio of uptake of BrdU relative to the uptake without Am80 ([2]; 1 μM) | ratio of uptake of BrdU relative to the uptake without Am80 ([2]; 3 μM) | ratio of uptake of BrdU relative to the uptake without Am80 ([2]; 10 μM) | antiproliferative action on vascular smooth muscle cells (in words) ([2]; summary statement) | neointima of injured blood vessel (in words) ([3]; mice, oral 5 mg/kg/day, after 5 weeks, compared with control mice) | neointima of injured blood vessel (in words) ([3]; mice, oral 5 mg/kg/day, after 5 weeks, compared with control mice; listed as 4-[5,6,7,8-tetrahydro-5,5,8,8-tetramethyl-2-naphthalenyl)carbamoyl]benzoic acid) | granulation around the cuff (in words) ([3]; mice, oral 5 mg/kg/day, after 5 weeks, compared with mice not administered) | granulation around the cuff (in words) ([3]; mice, oral 5 mg/kg/day, after 5 weeks, compared with mice not administered; listed as 4-[5,6,7,8-tetrahydro-5,5,8,8-tetramethyl-2-naphthalenyl)carbamoyl]benzoic acid) | Neointima area ([3]; mice, oral 5 mg/kg/day, after 5 weeks, control mice 0.0117 mm^2) [mm^2] | Granulation tissue area ([3]; mice, oral 5 mg/kg/day, after 5 weeks, control mice 1.08 mm^2) [mm^2] | ratio of intima/tunica media [4] | onsets of hypercardia, stromal fibrosing, and fibrosing around coronary artery ([5]; angiotensin II 3.2 mg/kg/day plus 5 mg/kg/day compound for two weeks) | Heart weight/body weight ([5]; angiotensin II 3.2 mg/kg/day plus Am80 5 mg/kg/day for two weeks, control mice 5.65 ± 0.195 mg/g) [mg/g] | granulation (in words) (KLF5/BTEB2+/- mice) |
| --- | --- | --- | --- | --- | --- | --- | --- | --- | --- | --- | --- | --- | --- | --- | --- | --- | --- | --- | --- | --- |
| CC1(C)CCC(C)(C)c2cc(NC(=O)c3ccc(C(=O)O)cc3)ccc21 [Am80] | 95.1 | 109.4 | 104.0 | 102.1 | substantially no antiproliferative action | 95.5 | 78.5 | 74.4 | 68.8 | substantially had antiproliferative action | significantly decreased | superior antiproliferative action on neointima | markedly suppressed | markedly suppressed granulation | 0.0019 | 0.44 | significantly decreased | markedly suppressed | 4.78 ± 0.170 | – |
| CN1c2cc3c(cc2N=C(c2ccc(C(=O)O)cc2)c2ccccc21)C(C)(C)CCC3(C)C [LE135, 4-(5H-7,8,9,10-tetra-hydro-5,7,7,10,10-pentamethylbenzo[e]naphtho[2,3-b][1,4]-diazepin-13-yl)benzoic acid] | – | – | – | – | – | – | – | – | – | – | – | – | – | – | – | – | – | – | – | strong granulation was observed |
